Target: T1, CPP-32 (Homo sapiens, UniProt P42574)
T1 sequence (P42574 29-175 limits assumed): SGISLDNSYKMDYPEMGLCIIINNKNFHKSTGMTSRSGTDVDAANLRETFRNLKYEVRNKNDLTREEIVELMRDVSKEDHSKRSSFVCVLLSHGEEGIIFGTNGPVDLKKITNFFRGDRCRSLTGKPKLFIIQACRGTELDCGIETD
Test: S-nitrosylation of purified p17
Assay type: biochemical

- p17 wt / S-nitrosylation / S-NO/protein: 1 ± 0.04 mol/mol
Structure (SMILES): [N]=O [NO, nitric oxide]
